Counter-ions that a name gives are not always drawn.
Legend:
Assay type in all cases: in vivo
Sorghum bicolor = test: Field trial with maize, herbicidal action; conditions: application 4-leaf stage, scoring 28 days after post-emergence application
Procedure: (§1) Transgenic maize plants with a resistance to one or more herbicides (A) together with typical weed plants were grown in the open on 2×5 m plots under natural field conditions; alternatively, weed infestation occurred naturally when the maize plants were grown.
(§2) 2, 4, 6 and 8 weeks after the application, the herbicidal activity of the active substances or active substance mixtures was scored visually with reference to the treated plots in comparison to untreated control plots. The damage to, and the development of, all aerial parts of the plants was recorded. Scoring was done on the basis of a percentage sale (100% action=all plants destroyed; 50% action=50% of the plants and green parts of the plants destroyed; 0% action=no recognizable effect=like control plot. The mean of the score values of in each case 4 plots was calculated.

Avena fatua = test: Field trial with maize, herbicidal action; conditions: application 2- to 4-leaf stage, scoring 28 days after application
Procedure: as §1, §2

Sinapis arvensis = test: Field trial with maize, herbicidal action; conditions: application 4- to 5-leaf stage, scoring 28 days after application
Procedure: as §1, §2

Commelina benghalensis = test: Field trial with maize, herbicidal action; conditions: application 3-leaf stage, scoring 42 days after application
Procedure: as §1, §2

[1] = system: Mais LL (Liberty-Link-Mais, maize tolerant or resistant to glufosinate-ammonium); test: Field trial, damage to transgenic maize (tolerance by crop plants); conditions: for Mais LL: application 3-leaf stage
Procedure: as §1
The damage to, and the development of, all aerial parts of the plants was recorded.
Abbreviations generally used in the tables: • g of a.s./ha=gram of active substance (100% active substance) per hectare • E^A=Total of the herbicidal effects of the individual applications • E^C Colby's expected value (cf. scoring in Table 1) • “Mais LL”=®Liberty-Link-Mais, maize which is tolerant or resistant to glufosinate-ammonium, […]

Fagopyrum esculentum = test: Field trial with maize, herbicidal action; conditions: for Herbicidal action (%) against Fagopyrum esculentum: application 3- to 4-leaf stage, scoring 24 days after application; for Herbicidal action (%) against Fagopyron esculentum: application 2- to 4-leaf stage, scoring 26 days after application
Procedure: as §1
(§3) […] The damage to, and the development of, all aerial parts of the plants was recorded. Scoring was done on the basis of a percentage sale (100% action=all plants destroyed; 50% action=50% of the plants and green parts of the plants destroyed; 0% action=no recognizable effect=like control plot. The mean of the score values of in each case 4 plots was calculated.

Digitaria sanguinalis = test: Field trial with maize, herbicidal action; conditions: application 5-6-leaf stage, scoring 11 days after application
Procedure: as §1, §3

Panicum dichotomiflorum = test: Field trial with maize, herbicidal action; conditions: application 5-6-leaf stage, scoring 11 days after application
Procedure: as §1, §3

Euphorbia heterophylla = test: Field trial with maize, herbicidal action; conditions: for Herbicidal action (%) against Euphorbia heterophylla: application 6-leaf stage, scoring 44 days after application; for Herbicidal action (%) against EPHHL: application 4-leaf stage, scoring 6 weeks after application
Procedure: as §1, §3

Lolium multiflorum = test: Field trial with maize, herbicidal action; conditions: application 2- to 4-leaf stage, scoring 26 days after application
Procedure: as §1, §3

AGRRE = test: Field trial with maize, herbicidal action; conditions: application 2-4-leaf stage, scoring 3 weeks after application
Procedure: as §1, §3

Echinochloa crus-galli = test: Field trial with maize, herbicidal action
Procedure: as §1, §3

AMARE = test: Field trial with maize, herbicidal action; conditions: application 2-4-leaf stage, scoring 3 weeks after application
Procedure: as §1, §3

SETVI = test: Field trial with maize, herbicidal action; conditions: application 2-4-leaf stage, scoring 3 weeks after application
Procedure: as §1, §3

Cassia obtusifolia = test: Field trial with maize, herbicidal action; conditions: 400 g of a.s./ha; application 3-leaf stage; scoring 21 days after application
Procedure: as §1, §3

Galium aparine = test: Field trial with maize, herbicidal action; conditions: application 3- to 4-leaf stage, scoring 24 days after application
Procedure: as §1, §3

Portulaca oleracea = test: Field trial with maize, herbicidal action
Procedure: as §1, §3

CP(=O)(O)CCC(N)C(=O)O (stereo not drawn) [(A1.2), glufosinate-monoammonium salt]
Herbicidal action (%) against Sorghum bicolor (Sorghum bicolor; 125 g of a.s./ha): 30% | Herbicidal action (%) against Sorghum bicolor (Sorghum bicolor; 250 g of a.s./ha): 50% | Herbicidal action (%) against Sorghum bicolor (Sorghum bicolor; 500 g of a.s./ha): 85% | Herbicidal action (%) against Avena fatua (Avena fatua; 300 g of a.s./ha): 48% | Herbicidal action (%) against Avena fatua (Avena fatua; 450 g of a.s./ha): 50% | Herbicidal action (%) against Sinapis arvensis (Sinapis arvensis; 230 g of a.s./ha): 45% | Herbicidal action (%) against Sinapis arvensis (Sinapis arvensis; 350 g of a.s./ha): 75% | Herbicidal action (%) against Commelina benghalensis (Commelina benghalensis; 100 g of a.s./ha): 43% | Herbicidal action (%) against Commelina benghalensis (Commelina benghalensis; 200 g of a.s./ha): 60.0% | Herbicidal action (%) against Commelina benghalensis (Commelina benghalensis; 300 g of a.s./ha): 63% | Herbicidal action (%) against Commelina benghalensis (Commelina benghalensis; 600 g of a.s./ha): 82% | Mais LL ([1]; 100 g of a.s./ha, Table 11, head names no quantity): 0 | Damage to Mais LL in % ([1]; 100 g of a.s./ha, application 6-leaf stage): 0% | Damage to Mais LL in % ([1]; 200 g of a.s./ha, application 2-4-leaf stage): 3% | Mais LL ([1]; 200 g of a.s./ha, Table 11, head names no quantity): 0 | Mais LL ([1]; 200 g of a.s./ha, Table 14, head names no quantity): 0 | Damage to Mais LL in % ([1]; 200 g of a.s./ha, application 5-6-leaf stage): 2% | Damage to Mais LL in % ([1]; 200 g of a.s./ha, application 6-leaf stage): 0% | Damage to Mais LL in % ([1]; 300 g of a.s./ha, application 2-4-leaf stage): 2% | Mais LL ([1]; 300 g of a.s./ha, Table 11, head names no quantity): 0 | Damage to Mais LL in % ([1]; 300 g of a.s./ha, application 4-leaf stage): 0% | Damage to Mais LL in % ([1]; 400 g of a.s./ha, application 2-4-leaf stage): 5% | Mais LL ([1]; 400 g of a.s./ha, Table 14, head names no quantity): 8 | Damage to Mais LL in % ([1]; 400 g of a.s./ha, application 5-6-leaf stage): 4% | Damage to Mais LL in % ([1]; 400 g of a.s./ha, application 6-leaf stage): 0% | Damage to Mais LL in % ([1]; 600 g of a.s./ha, application 2-4-leaf stage): 3% | Mais LL ([1]; 600 g of a.s./ha, Table 11, head names no quantity): 0 | Damage to Mais LL in % ([1]; 600 g of a.s./ha, application 4-leaf stage): 0% | Damage to Mais LL in % ([1]; 600 g of a.s./ha, application 5-6-leaf stage): 3% | Damage to Mais LL in % ([1]; 1000 g of a.s./ha, application 2-4-leaf stage): 4% | Herbicidal action (%) against Fagopyrum esculentum (Fagopyrum esculentum; 125 g of a.s./ha): 10% | Herbicidal action (%) against Fagopyron esculentum (Fagopyrum esculentum; 200 g of a.s./ha): 10% | Herbicidal action (%) against Fagopyrum esculentum (Fagopyrum esculentum; 250 g of a.s./ha): 20% | Herbicidal action (%) against Fagopyron esculentum (Fagopyrum esculentum; 330 g of a.s./ha): 20% | Herbicidal action (%) against Fagopyron esculentum (Fagopyrum esculentum; 500 g of a.s./ha): 55% | Herbicidal action (%) against Fagopyrum esculentum (Fagopyrum esculentum; 500 g of a.s./ha): 55% | Herbicidal action (%) against Digitaria sanguinalis (Digitaria sanguinalis; 200 g of a.s./ha): 0% | Herbicidal action (%) against Digitaria sanguinalis (Digitaria sanguinalis; 400 g of a.s./ha): 15% | Herbicidal action (%) against Digitaria sanguinalis (Digitaria sanguinalis; 600 g of a.s./ha): 30% | Herbicidal action (%) against Panicum dichotomiflorum (Panicum dichotomiflorum; 200 g of a.s./ha): 8% | Herbicidal action (%) against Panicum dichotomiflorum (Panicum dichotomiflorum; 400 g of a.s./ha): 50% | Herbicidal action (%) against Panicum dichotomiflorum (Panicum dichotomiflorum; 600 g of a.s./ha): 92% | Herbicidal action (%) against Euphorbia heterophylla (Euphorbia heterophylla; 100 g of a.s./ha): 37% | Herbicidal action (%) against Euphorbia heterophylla (Euphorbia heterophylla; 200 g of a.s./ha): 50% | Herbicidal action (%) against EPHHL (Euphorbia heterophylla; 300 g of a.s./ha): 45% | Herbicidal action (%) against Euphorbia heterophylla (Euphorbia heterophylla; 400 g of a.s./ha): 60% | Herbicidal action (%) against EPHHL (Euphorbia heterophylla; 600 g of a.s./ha): 55% | Herbicidal action (%) against Lolium multiflorum (Lolium multiflorum; 200 g of a.s./ha): 0% | Herbicidal action (%) against Lolium multiflorum (Lolium multiflorum; 330 g of a.s./ha): 15% | Herbicidal action (%) against Lolium multiflorum (Lolium multiflorum; 500 g of a.s./ha): 78% | Herbicidal action (%) against AGRRE (AGRRE; 200 g of a.s./ha): 0% | Herbicidal action (%) against AGRRE (AGRRE; 300 g of a.s./ha): 0% | Herbicidal action (%) against AGRRE (AGRRE; 400 g of a.s./ha): 11% | Herbicidal action (%) against AGRRE (AGRRE; 600 g of a.s./ha): 15% | Herbicidal action (%) against AGRRE (AGRRE; 1000 g of a.s./ha): 74% | Herbicidal action (%) against Echinochloa crus-galli (Echinochloa crus-galli; 125 g of a.s./ha, application 3- to 4-leaf stage, scoring 42 days after application): 45% | Herbicidal action (%) against Echinochloa crus-galli (Echinochloa crus-galli; 125 g of a.s./ha, application 3-leaf stage, scoring 28 days after application): 25% | Herbicidal action (%) against Echinochloa crus-galli (Echinochloa crus-galli; 200 g of a.s./ha, application 3-leaf stage, scoring 21 days after application): 35% | Herbicidal action (%) against Echinochloa crus-galli (Echinochloa crus-galli; 250 g of a.s./ha, application 3- to 4-leaf stage, scoring 42 days after application): 65% | Herbicidal action (%) against Echinochloa crus-galli (Echinochloa crus-galli; 250 g of a.s./ha, application 3-leaf stage, scoring 28 days after application): 45% | Herbicidal action (%) against Echinochloa crus-galli (Echinochloa crus-galli; 400 g of a.s./ha, application 3-leaf stage, scoring 21 days after application): 68% | Herbicidal action (%) against Echinochloa crus-galli (Echinochloa crus-galli; 500 g of a.s./ha, application 3- to 4-leaf stage, scoring 42 days after application): 78% | Herbicidal action (%) against Echinochloa crus-galli (Echinochloa crus-galli; 500 g of a.s./ha, application 3-leaf stage, scoring 28 days after application): 74% | Herbicidal action (%) against AMARE (AMARE; 200 g of a.s./ha): 65% | Herbicidal action (%) against AMARE (AMARE; 300 g of a.s./ha): 84% | Herbicidal action (%) against AMARE (AMARE; 400 g of a.s./ha): 82% | Herbicidal action (%) against AMARE (AMARE; 600 g of a.s./ha): 87% | Herbicidal action (%) against AMARE (AMARE; 1000 g of a.s./ha): 85% | Herbicidal action (%) against SETVI (SETVI; 200 g of a.s./ha): 72% | Herbicidal action (%) against SETVI (SETVI; 300 g of a.s./ha): 72% | Herbicidal action (%) against SETVI (SETVI; 400 g of a.s./ha): 69% | Herbicidal action (%) against SETVI (SETVI; 600 g of a.s./ha): 69% | Herbicidal action (%) against SETVI (SETVI; 1000 g of a.s./ha): 74% | Herbicidal action (%) against Cassia obtusifolia (Cassia obtusifolia): 60% | Herbicidal action (%) against Galium aparine (Galium aparine; 125 g of a.s./ha): 30% | Herbicidal action (%) against Galium aparine (Galium aparine; 250 g of a.s./ha): 45% | Herbicidal action (%) against Galium aparine (Galium aparine; 500 g of a.s./ha): 65% | Herbicidal action (%) against Portulaca oleracea (Portulaca oleracea; 250 g of a.s./ha, application 6-leaf stage, scoring 26 days after application): 35% | Herbicidal action (%) against Portulaca oleracea (Portulaca oleracea; 300 g of a.s./ha, application 2- to 4-leaf stage, scoring 28 days after application): 43% | Herbicidal action (%) against Portulaca oleracea (Portulaca oleracea; 450 g of a.s./ha, application 2- to 4-leaf stage, scoring 28 days after application): 50% | Herbicidal action (%) against Portulaca oleracea (Portulaca oleracea; 500 g of a.s./ha, application 6-leaf stage, scoring 26 days after application): 60%

Source: patent US8772199B2, “Herbicidal compositions for tolerant or resistant maize crops” (Bayer Intellectual Property GmbH, priority 1998, dated 2014)
